The values below come from patent US11242347B2, “2-phenyl-3,4-dihydropyrrolo[2,1-Ff] [1,2,4]triazinone derivatives as phosphodiesterase inhibitors and uses thereof” (TOPADUR PHARMA AG, priority 2015, dated 2022).

pEC50: −log10 of the molar value.

Experiment [1] concerns human pulmonary artery smooth muscle cells (hPASMC). Kind of experiment: Measurements of cGMP in human pulmonary artery smooth muscle cells (hPASMC). The experiment is classed as cell-based. Conditions: incubation 15 or 30 min; compared with sildenafil. Here is the method:
Human Pulmonary Artery Smooth Muscle Cells (hPASMC) were purchased from Clonetics™ Lonza (Lonza, reference number CC-2581) and cultured in Clonetics' smooth muscle growth medium (Clonetics™ SmGM™-2 with BulletKit™ growth factor supplements (Lonza, reference number CC-3182) at 37° C. in 5% CO2. Culture medium was replaced each 48 hours. Cells were grown in 75 cm^2 culture plates.
48 h before the experiments, cells were trypsinized (Trypsin kit One ReagentPack™ (CC-5034), Lonza) and plated in 96 well plates precoated with collagen I at 10000 cells per well. 24 h before the experiments culture medium was replaced by serum-reduced (0.5% FBS) medium.
Measurements of intracellular cGMP were performed using the Amersham cGMP EIA System (GE Healthcare, RPN226) following the instructions of the manufacturer. The assay has a sensitivity of 2 fmol cGMP per well. Briefly, incubations were terminated by adding Amersham's lysis buffer 1 and cells left for 10 min under agitation to ensure complete lysis. cGMP in samples was then acetylated using triethylamine and acetic anhydride and determined by a competitive ELISA. The ELISA is based on the competition between acetylated cGMP in cell culture lysates and a peroxidase-labelled cGMP conjugate for limited binding sites on a cGMP specific antiserum immobilized on pre-coated 96 well MTP. cGMP was determined based on a standard curve. […]

The test system of experiment [2] is phenylephrine-precontracted rat aortic rings. Kind of experiment: Isometric tension studies: relaxation of phenylephrine-precontracted rat aortic rings. To be noted: for IC40: concentration where 40% relaxation was achieved; for pEC50 / Emax: Rattus norvegicus.
Experimental: After 1 week of acclimatization, rats were anesthetized. Appropriate depth of anesthesia was determined by the absence of the leg flexor response and the eyelid reflex. Then, the thorax was quickly opened by a midline incision, and the rat was sacrificed by cutting the heart and exsanguination.
Indomethacin (1 μM) was added to the saline solution.
Eligible rings were then washed several times to restore tension to the baseline level.
In some experiments, the entire length of the thoracic aorta was functionally denuded of the endothelial layer by gently scraping the luminal surface with a 1.5 mm glass rod. […] Rings were then washed several times to restore tension to the baseline level.
Indomethacin (1 μM) was added to the saline solution. […] Only vessels with at least 60% relaxation to 1 μM ACh from the tension with 300 nM were eligible.
The preparations were allowed to equilibrate for 60 min in Krebs with high glucose (25 mM) before contraction to a new single concentration of PE (300 nM).
Finally, sodium nitroprusside (0.1 mM) was added, in order to obtain maximum relaxation of arterial rings.
The amount of relaxation (percent values as means±SEM) was quantified as percent relaxation from the tension (plateau) achieved with phenylephrine.
Data are presented as mean±SEM. Statistical analysis of results has been performed by analysis of variance (ANOVA) either parametric or non-parametric (Kruskal-Wallis), followed by Bonferroni test or Dunn tests as appropriate (GraphPad Software Inc, San Diego, Calif., USA). Significance was accepted when P<0.05. Non-linear regression was conducted with GraphPad Software).

Regarding `CCCOc1ccc(S(=O)(=O)N2CCC(CCO[N+](=O)[O-])CC2)cc1-c1nn2c(CCC)c(/C=N/O)c(C)c2c(=O)[nH]1` [Compound 1v, (E)-2-(1-((3-(6-((hydroxyimino)methyl)-5-methyl-4-oxo-7-propyl-3,4-dihydropyrrolo[2,1-f][1,2,4]triazin-2-yl)-4-propoxyphenyl)sulfonyl)piperidin-4-yl)ethyl nitrate], the “cGMP formation in hPASMC, activity in words” value in experiment [1] is reported as “significantly higher activity as compared to the reference inhibitor sildenafil”. Also, the IC40 is 0.66 nM in experiment [2] (High Glucose (25 mM)), 0.0082 nM in experiment [2] (Intact Endothelium (E+)), 1.412 nM in experiment [2] (L-NAME (100 μM)) and 7.527 nM in experiment [2] (Without Endothelium). The pEC50 (usually the EC50 on a negative log10 scale, so that one unit is a factor of ten) in experiment [2] (High Glucose (25 mM)) is 9.74; in experiment [2] (Intact Endothelium (E+)), 10.95; in experiment [2] (L-NAME (100 μM)) it was 9.57; in experiment [2] (Without Endothelium) it was 9.66. The Emax (in general, the maximal effect, on the per cent scale that the assay sets) came out at 64.2% in experiment [2] (High Glucose (25 mM)), 85.1% in experiment [2] (Intact Endothelium (E+)), 62% in experiment [2] (L-NAME (100 μM)) and 48.7% in experiment [2] (Without Endothelium). For the same molecule, the “lower concentration for 40% relaxation related to sildenafil” value was over 130 fold in experiment [2] (Without Endothelium), about 68 fold in experiment [2] (with L-NAME), about 1250 fold in experiment [2] (with high glucose) and “about 24 fold” in experiment [2] (with intact endothelium). For the same molecule, the “more potent relaxation as compared to sildenafil (based on EC50)” value in experiment [2] (absence of endothelium) is reported as “about 95 fold”; in experiment [2] (intact endothelium), “about 17 fold”; in experiment [2] (intact endothelium, pre-exposed to high (25 mM) glucose for 60 min), “about 110 fold”; in experiment [2] (presence of L-NAME), “about 22 fold”. The “relaxation of rat aortic rings, result in words” value was “more potent and effective than Sildenafil” in experiment [2] (intact endothelium (FIG. 2A)); “clearly more potent and efficacious than 1r” in experiment [2] (pre-exposed to high glucose (25 mM) (FIG. 2B)).
